Measurements from US20130156845A1, “LIPID FORMULATED SINGLE STRANDED RNA” (ALNYLAM PHARMACEUTICALS, INC., priority 2010, published 2013).
Where two headings read alike, the source gives them in different places. Strand notation (5' to 3'): a small letter for the sugar, then the base; units joined by * are phosphorothioate-linked, units joined directly phosphodiester-linked; [ ] holds rarer units or linkages, { } end groups; capitals alone tell only the bases. {PS2} = PS2 group (structure drawn in the publication); {PS} = PS group (structure drawn in the publication); e = 2'-O-(2-methoxyethyl) (MOE); m = 2'-O-methyl; {P} = phosphate; f = 2'-fluoro

Experiments:
PTEN [1] = experiment: PTEN mRNA reduction in HeLa cells, dose response (Example 64); format: cell-based, human; conditions: real-time PCR, 1.56-50 nM
Experimental: A dose response experiment was performed targeting PTEN in human HeLa cells to determine the effects of placement of sugar and internucleoside linkages within ssRNAs. More specifically, the modified ssRNAs were tested for their ability to reduce PTEN mRNA in cultured cells. The modified ssRNAs are shown below, and contain 2′-OMe and 2′-fluoro modified nucleosides, two 2′-O-MOE modified nucleosides at the 3′-terminus, and seven phosphorothioate linkages at the 3′-terminus of the ssRNAs.
HeLa cells were treated with ssRNAs shown below at concentrations of 1.56 nM, 3.13 nM, 6.25 nM, 12.5 nM, […] and 50 nM using methods described herein. Levels of mRNA were determined using real-time PCR methods as described herein. The IC50 for each ssRNA was determined.

[2] = ssRNA stability in hepatocyte cell homogenate assay (Example 65); format: in vitro ADME; conditions: mouse hepatocyte homogenate, LC-MS
Experimental: Hepatocytes were harvested from bal/c mice in ice-cold hepatocyte wash media (William E Media) with fetal bovine serum, sedimented by centrifugation at 1000 g for 8 minutes and then washed with hepatocyte wash media. Hepatocytes were homogenized with RIPA buffer (50 mM Tris pH 7.5, 10 mM MgCl2, 150 mM NaCl, 0.5% NP-40 alternative, one tablet of Roche protease inhibitor #11836170001), and centrifuged at 14000 g for 15 minutes at 4° C. and the supernatant was removed and stored in ice. Protein concentration (BSA mg/mL) was determined with Bradford assay and adjusted to a final protein concentration of 2 mg/mL by addition of Ripa buffer volume or cell homogenate volume.
[…] were homogenized in a homogenation buffer (20 mM Tris, pH 8, 20 mM EDTA and 0.1 M NaCl in 0.5% NP-40) at time points 0, 5, 10, 20, 30, 40 and 60 minutes (Exception: 06/408877 at time points 0, 15, 30, 60, 120 and 240 mins, 06/409044, at time points 0, 0.5, 1, 2, 4, 8, and 18 hours). An internal standard (18/355868, a 27-mer, 2′-O-methoxyethyl-modified phosphorothioate oligonucleotide, or 19/116847, a 5-10-5 gappmer, 2′-O-methoxyethyl-modified phosphorothioate oligonucleotide) with concentration at 20 ug/g was added prior to extraction. Tissue samples were extracted with 70 μL of NH4OH and 240 μL of phenol/chloroform/isoamyl alcohol (25:24:1). The supernatant was removed after centrifugation at 14000 rpm for 2 min. The remaining extractant was vortexed with an additional […] of water and the aqueous layer was removed and combined with the supernatant after centrifugation at 14000 rpm for 2 minutes.
Triethylammonium acetate solution at 1M ([…]) was added to the supernatant. The aqueous layer of the mixture was loaded onto the pre-conditioned Biotage™ Phenyl Solid Phase Extraction Plate (SPE plate) after centrifugation at 9000 rpm for 20 minutes. The SPE plate was washed several times with water. The sample was then eluted with 1.5 mL of 1% TEA in 90% MeOH and filtered through the Protein Precipitation Plate (Phenomenex™). The elutent was evaporated to dryness and diluted to 200 μL with 50% quenching buffer (8 M urea, 50 mM EDTA) and water before sample injection.
An Agilent 1100 Series LC/MSD system was connected in-line to a mass spectrometry. Mass spectrometer was operated in the electrospray negative ionization mode. The nebulizer nitrogen gas was set at […] and the drying nitrogen gas was set at 12 L/min. The drying temperature was 325° C. Samples (25 μL/well) were introduced via an auto sampler and reversed-phase chromatography was carried out with an XBridge OST C18 2.5 μm 2.1 mm×50 mm HPLC column using a flow rate of 300 μL/min at 55° C. The ion pair buffers consisted of A: 5 mM tributylammonium acetate (TBAA) in 20% acetonitrile and B: […] TBAA in 90% acetonitrile and the loading buffer was 25 mM TBAA in 25% Acetonitrile. Separation was performed on a 30% to 70% B in 9 min and then 80% B in 11 min gradient.
Quantitative analysis of oligonucleotide and internal standard by extracted ion chromatograms of the most abundant ions was performed using MSD ChemStation software. The results are expressed as half-time (T1/2) in the table below.

PTEN [3] = experiment: In vivo evaluation of ssRNA formulated in lipid particle LNP06, liver PTEN mRNA (Example 77); set-up: species or system mouse; conditions: ssRNA formulated in LNP06, 4.5 mg/kg tail vein, C57BL/6 mice, liver PTEN mRNA normalized to GAPDH, 2 days post injection
Experimental: In accordance with the present disclosure, oligomeric compounds were synthesized and tested for their ability to reduce PTEN. C57BL/6 mice (Charles River Labs, MA) received either saline or LNP formulated single stranded RNA via tail vein injection at a volume of 0.01 mL/g and the single stranded RNA dose is 4.5 mg/kg. 25 groups of female mice and 9 modified ssRNAs targeting PTEN were formulated in LNP06 and tested. To determine liver mRNA levels of PTEN, 2 days post injection, animals were sacrificed and livers were harvested and snap frozen in liquid nitrogen. Liver lysates were prepared from the frozen tissues and liver mRNA levels of PTEN normalized to GAPDH were quantified using a branched DNA assay (QuantiGene Assay, Panomics, Calif.).

PTEN [4] = experiment: Liver PTEN mRNA in Balb/c mice, unformulated oligomeric compounds (Example 70); format: in vivo, mouse; conditions: 48 h
Experimental: Six-week-old male Balb/c mice (Jackson Laboratory, Bar Harbor, Me.) were injected intraperitenially with a single dose of 75 mg/kg of one of the three oligomeric compounds above or with saline control. Each dose group consisted of four animals. The mice were sacrificed 48 hours following administration. Livers were collected and PTEN mRNA levels were assessed using real-time PCR and RIBOGREEN® RNA quantification reagent (Molecular Probes, Inc. Eugene, Oreg.) according to standard protocols. PTEN mRNA levels were determined relative to total RNA (using Ribogreen), and normalized to the saline-treated control. Results are listed below as the average % inhibition of PTEN mRNA expression for each treatment group, normalized to saline-injected control.

PTEN [5] = experiment: PTEN mRNA reduction in HeLa cells, dose response (Example 72); format: cell-based, human; conditions: percent inhibition of PTEN mRNA, 0.167-50 nM
Experimental: In accordance with the present disclosure, oligomeric compounds were synthesized and tested for their ability to reduce PTEN expression over a range of doses. Human HeLa cells were treated with the following oligomeric compounds. A dose comparison was evaluated with dose concentrations of 0.167, 0.5, 1.5, 5, 15 and 50 nM using methods described herein. Expression levels of PTEN were determined using real-time PCR and normalized to RIBOGREEN™ using methods described herein. The percent inhibition of PTEN mRNA was determined and the resulting dose-response curves were used to determine the IC50. The IC50s are listed below.

human PTEN = experiment: PTEN expression in HeLa cells, ssRNAs vs siRNAs (Example 62); format: cell-based
Experimental: A series of 5′ and 2′ bis-substituted modified oligomeric compounds were prepared as single strand RNAs (ssRNAs). The antisense (AS) strands listed below were designed to target human PTEN, and each was also assayed as part of a duplex with the same sense strand (ISIS 341401, shown below) for their ability to reduce PTEN expression levels. HeLa cells were treated with the single stranded or double stranded oligomeric compounds created with the antisense compounds shown below using methods described herein. The IC50's were calculated using the linear regression equation generated by plotting the normalized mRNA levels to the log of the concentrations used.

Row | Substance | IC50 (PTEN [1]) | T1/2 Test 1 [2] | % Kd (PTEN [3]) | further results
1 | P-UfUfGfUfCfUfCmUfGmGfUmCfCmUfUmAfCmUfUmTeTe (antisense UUGUCUCUGGUCCUUACUUTT; 5'-phosphate, modified nucleotides, chemistry not fully specified) [ISIS 409049, modified ssRNA targeting PTEN] | 16.2 nM | 13 min | – | –
2 | P-USSUfGmUfCmUfCmUfGmGfUmCfCmUfUmAfCmUfUmAeAe (antisense TUGUCUCUGGUCCUUACUUAA; 5'-phosphate, 2'-F/2'-OMe, MOE modifications, chemistry not fully specified) [ISIS 467088, modified ssRNA targeting PTEN] | – | – | 50% | –
3 | PS2-TmoeUfGmUfCmUfCmUfGmGfUmCfCmUfUmAfCmUfUmAeAe (antisense {PS2}-eT*fU*mGfU*mCfU*mCfU*mGfG*mUfC*mCfU*mU*fA*mC*fU*mU*eA*eA) [A-59890, modified ssRNA targeting PTEN] | – | – | 31% | –
4 | UfUfGfUfCfUfCmUfGmGfUmCfCmUfUmAfCmUfUmAeAe (UUGUCUCUGGUCCUUACUUAA; sugars from the 5' end ffffffmfmfmfmfmfmfmee, backbone not given here) [ISIS 407047, modified ssRNA targeting PTEN] | 3.5 nM | 6 min | – | –
5 | PS-TmoeUfGmUfCmUfCmUfGmGfUmCfCmUfUmAfCmUfUmAeAe (antisense {PS}-eT*fU*mGfU*mCfU*mCfU*mGfG*mUfC*mCfU*mU*fA*mC*fU*mU*eA*eA) [A-59889, modified ssRNA targeting PTEN] | – | – | 45% | –
6 | ^meCeTeGe^meCeTeAG^meC^meCT^meCTGGATeTeTeGeAe [ISIS 116847, reference compound] | – | – | – | inhibition of PTEN (PTEN [4]; 75 mg/kg, liver): potent inhibitor of PTEN; % inhibition (PTEN [4]; liver PTEN mRNA, single i.p. dose 75 mg/kg, normalized to saline control): 76%
7 | P-UmUfGfUfCfUmCmUfGfGmUmCfCfUfUfAfCmUmUmAeAe (antisense UUGUCUCUGGUCCUUACUUAA; sugars from the 5' end mffffmmffmmfffffmmmee, 5' {P}, backbone not given here) [ISIS 408877, modified ssRNA targeting PTEN] | 7 nM | 30 min | – | T1/2 Test 2 [2]: 24 min
8 | P-TdUfGmUfCmUfCmUfGmGfUmCfCmUfUmAfCmUfUmAeAe (antisense TUGUCUCUGGUCCUUACUUAA; 5'-phosphate, chemical modifications, chemistry not fully specified) [ISIS 435397, modified ssRNA targeting PTEN] | – | – | 44% | IC50 (PTEN [5]): 2 nM; EC50 (human PTEN; antisense strand duplexed with sense strand ISIS 341401, PTEN mRNA, read-out: EC50 (nM) siRNA): 0.4 nM; EC50 (human PTEN; single stranded antisense compound, PTEN mRNA, read-out: EC50 (nM) ssRNA): 2 nM
9 | P-TmoeUfGmUfCmUfCmUfGmGfUmCfCmUfUmAfCmUfUmAeAe (antisense {P}-eT*fU*mGfU*mCfU*mCfU*mGfG*mUfC*mCfU*mU*fA*mC*fU*mU*eA*eA) [A-53286, modified ssRNA targeting PTEN] | – | – | 67% | –
10 | P-UfUfGfUfCfUmCmUfGfGmUmCfCfUfUfAfCmUmUmTeTe (antisense UUGUCUCUGGUCCUUACUUTT; 5'-phosphate, modified nucleotides, chemistry not fully specified) [ISIS 409062, modified ssRNA targeting PTEN] | 8.6 nM | 17 min | – | –
11 | P-UmUfGmUfCmUfCmUfGmGfUmCfCmUfUmAfCmUfUmAeAe (antisense UUGUCUCUGGUCCUUACUUAA; sugars from the 5' end mfmfmfmfmfmfmfmfmfmee, 5' {P}, backbone not given here) [ISIS 409044, modified ssRNA targeting PTEN] | 10.5 nM | 240 min | – | T1/2 Test 2 [2]: 258 min
12 | P-UfUfGfUfCfUmCmUfGfGmUmCfCfUfUfAfCmUmUmAeAe (antisense UUGUCUCUGGUCCUUACUUAA; sugars from the 5' end fffffmmffmmfffffmmmee, 5' {P}, backbone not given here) [ISIS 408874, modified ssRNA targeting PTEN] | 6 nM | 22 min | – | T1/2 Test 2 [2]: 18 min
